According to publication PMC2847917 (The Journal of General Physiology, 2010):
pEC50: −log10 of the molar value.

How the values were obtained:
P2X4 receptor [1] = biological target: T1, P2X4 receptor (Mus musculus, UniProt Q9JJX6); experiment: whole-cell voltage clamp, agonist-evoked inward current; format: cell-based
T1 sequence (Q9JJX6 1-388): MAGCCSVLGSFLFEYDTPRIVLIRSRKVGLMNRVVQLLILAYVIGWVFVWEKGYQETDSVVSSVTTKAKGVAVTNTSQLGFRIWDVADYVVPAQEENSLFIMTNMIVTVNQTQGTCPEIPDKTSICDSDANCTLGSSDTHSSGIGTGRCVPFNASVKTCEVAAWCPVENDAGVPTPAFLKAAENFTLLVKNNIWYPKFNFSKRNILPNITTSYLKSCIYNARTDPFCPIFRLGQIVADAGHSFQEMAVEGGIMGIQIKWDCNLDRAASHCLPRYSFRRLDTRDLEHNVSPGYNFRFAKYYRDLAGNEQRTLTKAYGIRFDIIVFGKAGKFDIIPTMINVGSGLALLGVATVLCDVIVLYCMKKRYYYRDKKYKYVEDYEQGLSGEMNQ

P2X4 receptor [2] = biological target: T1, P2X4 receptor; experiment: cell-based

| Structure (SMILES) | whole-cell voltage clamp, agonist-evoked inward current (partial agonist) (P2X4 receptor [1]) | pEC50 (P2X4 receptor [2]) |
| --- | --- | --- |
| Nc1ncnc2c1ncn2[C@@H]1O[C@H](COP(=O)(O)CP(=O)(O)OP(=O)(O)O)[C@@H](O)[C@H]1O [α,β-Methylene ATP] | α,β-Methylene ATP was a partial agonist | – |
| Nc1ncnc2c1ncn2[C@@H]1O[C@H](COP(=O)(O)OP(=O)(O)OP(=O)(O)O)[C@@H](O)[C@H]1O [ATP] | – | 4.48 |
